Results as given in patent publication US11246873B2, “Directed differentiation of oligodendrocyte precursor cells to a myelinating cell fate” (The Scripps Research Institute, priority 2011, dated 2022).
Entries after “also recorded” stand apart in the source; their conditions may differ.

Legend:
OPCs [1] = test: Western blot of MBP and MOG in compound treated OPCs; format: cell-based, rat; settings: OPCs treated 6 days
From the text: (§1) FIG. 2A-C. Neurotransmitter receptor modulating agents induce the differentiation of OPCs to a myelinating oligodendrocyte cell fate. (A) Western blot analysis of OPCs treated with compounds at EC90 concentrations for 6 days. Total protein was isolated from cell pellets and probed for myelin basic protein (MBP) and myelin oligodendrocyte glycoprotein (MOG) using specific antibodies. (B-C) Quantitative RT-PCR (qRT-PCR) analysis of OPCs treated with compounds at EC90 concentrations for 6 days. Total RNA was isolated from cell pellets and reverse transcribed. MBP and MOG expression was quantified using specific probes and Taqman-based qRT-PCR. Expression was normalized to the internal controls β-actin and GAPDH. Fold change in gene expression over DMSO treated control cells is plotted for MBP (B) and MOG (C).
FIG. 13. […] After 6 days in culture, cells were analyzed for MBP and MOG expression by Western blot.

[2] = system: M1/M3 muscarinic receptors
Protocol: (§2) Following 6 days of treatment, cells were fixed and stained for MBP. Plates were imaged using the OPERA high content screening system and MBP staining was quantified as described. […] OPCs were plated in 384-well plates at 5000 cells per well in media containing basal PDGF-αα. Cells were equilibrated with Ca^2+ sensitive Fluo-3AM® dye in HBSS for 30 min. […] Ca^2+ influx was immediately measured using the FLIPR TETRA® system.
(A-C) OPCs were plated in differentiation media for 12 hours. […] (C) Atropine, a muscarinic antagonist, serves as a positive control. (D) OPCs were plated in differentiation medium for 12 hours. A cAMP-HTRF assay was performed using the cAMP dynamic 2 kit. […] IBMX was added as a cAMP stabilizer, and forskolin was a positive control.

OPCs [3] = test: Immunofluorescence analysis of mature oligodendrocyte markers (MBP, MOG, CNP, GalC, O1, O4); format: cell-based, rat; settings: OPCs treated 6 days
From the text: FIG. 3. Immunofluorescence analysis of compound treated OPCs using mature oligodendrocyte specific markers. Immunofluorescence staining using specific antibodies for MBP, MOG, and 2′,3′-cyclic nucleotide 3′ phosphodiesterase (CNP). Nuclei were identified using DAPI.
FIG. 4. Immunofluorescence analysis of compound treated OPCs using mature oligodendrocyte specific markers. Immunofluorescence staining using specific antibodies for galactocereberoside (GalC), oligodendrocyte marker O1 (O1) and oligodendrocyte marker O4 (O4). Nuclei were identified using DAPI.
FIG. 14. Compound treatment induces the differentiation of OPCs to mature oligodendrocytes. […] Cells were fixed and immunostained for MBP, MOG, CNP, GalC, O1, or O4.
Immunofluorescence was also used to confirm that the hits were able to induce oligodendrocyte maturation.

OPCs [4] = test: qRT-PCR of MBP and MOG expression in compound treated OPCs; format: cell-based, rat; settings: EC90 concentrations, 6 days
From the text: as §1, with “Neurotransmitter receptor modulating agents induce the differentiation of OPCs to a myelinating oligodendrocyte cell fate.” left out

muscarinic receptor = test: Carbachol co-treatment in compound induced OPC differentiation (MBP staining); format: cell-based, rat; settings: compounds at EC90 (benztropine 2.3 uM), serial dilutions of carbachol, 6 days
Protocol: as §2
OPCs express mAChRs, predominantly subtypes M1, M3, and M5 (F. Ragheb et al., J Neurochem, 77, 1396 (2001)). […] Activation of M1 and M3 mAChRs is coupled to downstream signal transduction events through phospholipase C, which results in increased intracellular calcium concentrations (F. Ragheb et al., J Neurochem, 77, 1396 (2001)) (FIG. 23C). M2 and M4 mAChR activation inhibits adenylatecyclase, leading to decreased intracellular cAMP levels (C. C. Felder, FASEB J, 9, 619 (1995); M. Lopez-Ilasaca et al., Science, 275, 394 (1997)). […] Acetylcholine is a known regulator of OPC proliferation and, as such, muscarinic receptor subtypes represent a reasonable class of therapeutic targets for the modulation of OPC proliferation and differentiation (F. De Angelis et al., Dev Neurobiol, (2011)).

[5] = system: rat optic nerve derived OPCs; test: High content imaging assay of OPC differentiation (MBP immunostaining, OPERA); format: cell-based; settings: for induction of OPC differentiation (MBP staining): OPCs in differentiation medium (2 ng/ml PDGF), 6 days
Protocol: FIG. 1A-C. […] The calculated EC50 values were determined using appropriate Graphpad Prism 5.0 curve fitting software. […] OPCs were plated in 384 well plates at 1000 cells per well in OPC media containing basal PDGF-αα (2 ng/mL) and treated with serial dilutions of compounds. Following six days of compound treatment, cells were fixed and subjected to immunofluorescence analysis using anti-myelin basic protein (MBP) antibody. Image acquisition and quantification of MBP staining was performed using the OPERA imaging system.
FIG. 11A-B. Screen to identify inducers of OPC differentiation. (A) OPCs were maintained as proliferating A2B5-positive cells under basal growth conditions (Neurobasal medium, B27 supplement without Vitamin A, non-essential amino acids, L-Glutamine, 30 ng/ml PDGF). OPCs were plated in basal differentiation media (Neurobasal medium, B27 supplement without Vitamin A, non-essential amino acids, L-Glutamine, 2 ng/ml PDGF), treated with DMSO (<0.1%) or thyroid hormone (1 uM), fixed after 6 days in culture, and stained using antibodies for CNP, O4, or MBP. […] (B) Screen strategy using A2B5 positive OPCs cultured under basal differentiation conditions and treated with compounds for 6 days to identify small molecules that induce the differentiation of OPCs to mature, MBP expressing oligodendrocytes.
FIG. 12A-B. Primary hit confirmation. (A) Dose response assay used to confirm primary screening hits and determine potency (EC50). (EC50) is defined as the concentration that results in a half maximal increase in the percentage of total cells that express MBP as detected by immunostaining. […] Cells were fixed and immunostained using antibodies for MBP. Error bars represent standard deviations from 3 replicate experiments. […]
FIG. 21. […] OPCs were plated in differentiation medium (2 ng/ml PDGF) and treated with various concentrations of compounds for 6 days. Cells were fixed and immunostained for MBP.
A large-scale small molecule screen was conducted to identify small molecules that promote the differentiation of oligodendrocyte precursor cells (OPCs) to a mature myelinating fate. High content imaging was used to detect in-well differentiation of rat optic nerve derived OPCs. Rat optic nerve derived OPCs were expanded en masse in OPC media containing 30 ng/mL PDGFαα. To screen for small molecule inducers of OPC differentiation, OPCs (cultured for fewer than 15 passages) were plated in poly-D-lysine coated 384 well culture plates in OPC Media containing 2 ng/mL PDGFαα and immediately treated with compounds at a final concentration of 6 μM (0.6% DMSO). Compound treated cells were incubated at 37° C., 5% CO2 for 6 days. At the end of 6 days, cells were fixed in 4% paraformaldehyde and subjected to immunofluorescence analysis. Anti-Myelin Basic Protein monoclonal antibody (a.a. 129-138, clone 1 monoclonal antibody, Millipore) (1:1000 dilution) in blocking buffere solution (3% BSA, 0.3% Triton X-100 in PBS) was added to fixed and washed cells and incubated at 4° C. overnight.

PLP induced EAE mice = system: PLP induced EAE mice
Protocol: (A-E) SJL mice were immunized with proteolipid peptide (PLP) and pertussis toxin and monitored daily with scoring on the standard clinical EAE scale (0-5). Compounds were administered daily for the duration of the study in saline at 10 mg/kg via intra-peritoneal injection (0.1 ml), starting on the day of the appearance of clinical EAE symptoms (day 10). […] Mean clinical EAE score and standard error of mean (SEM) are shown for each study group.
FIG. 25. […] EAE was induced in mice using PLP and pertussis toxin. […] Prophylactic dosing is defined as administration of compound commenced on the day of PLP injection. Error bars indicate standard deviation of the mean within each group of 8 mice.
(A-F) EAE was induced in mice using PLP and pertussis toxin. […] Error bars indicate standard deviation of the mean within each group of 8 mice.
(A-F) EAE was induced in mice by injecting PLP in complete Freund's adjuvant (CFA) and pertussis toxin, and the animals were scored daily for clinical severity of disease on a scale of 0-5. […] Error bars indicate standard deviation of the mean within each group of 8-10 mice.
10 week old SJL mice were immunized with PLP emulsion and pertusis toxin to induce EAE. […] Compounds were administered daily via intraperitoneal injection of 100 ul in sterile saline at 10 mg/kg alone or in combination with mycophenolate motefil in sterile saline at pH 5 at 20 mg/kg. Compound administration was initiated at disease onset (day 10) while mycophenolate motefil administration was initiated on Day 14. The mice were scored daily on a standard EAE scale of 0-5.
This model is most commonly used to evaluate the potential efficacy of immunomodulatory agents, but can also be used to determine the effectiveness of promyelinating agents that function by enhancing OPC differentiation (M. Fernandez et al., Proc Natl Acad Sci U.S.A, 101, 16363 (2004); X. Lee et al., J Neurosci, 27, 220 (2007); reviewed in R. J. Franklin, C. Ffrench-Constant, Nat Rev Neurosci, 9, 839 (2008)). […] We next evaluated efficacy when the drug is dosed therapeutically, by starting daily injections at the first sign of disease onset.
For the treatment of MS, an OPC differentiation inducing drug would most likely be introduced clinically as part of a combination therapy with an immunosuppressive drug. […] The former reduces T-cell proliferation and alters cytokine expression (A. Noronha, A. Toscas, M. A. Jensen, J Neuroimmunol, 46, 145 (1993); A. Noronha, A. Toscas, M. A. Jensen, Ann Neurol, 27, 207 (1990)), while the latter is an S1P agonist that regulates T-cell trafficking (V. Brinkmann et al., J Biol Chem, 277, 21453 (2002); V. Brinkmann et al., Nat Rev Drug Discov, 9, 883 (2010)).

[6] = system: total splenocytes stimulated with CD3; test: T-cell activation (CD69, CD25) and proliferation (CFSE) in vitro; format: cell-based, mouse; settings: versus DMSO
From the text: (A-F) Total splenocytes were isolated from mice and stimulated with CD3 and analyzed by flow cytometry for expression of T-cell activation markers CD69 and CD25 and T-cell proliferation using CFSE. (A) Unstimulated cells. (B) DMSO treated cells. […] The numbers represent percentage gated populations positive for the given marker.
The primary immunological processes involved in MS and EAE are T-cell mediated and the primary treatment paradigms are based on immunomodulatory drugs (T. Kopadze et al., Arch Neurol, 63, 1572 (2006); J. M. Greer et al., J Immunol, 180, 6402 (2007), M. P. Pender and J. M. Greer, curr Allergy Asthma Rep, 7, 285 (2007)).

OCc1cc(C(O)CNCCCCCCOCCCCc2ccccc2)ccc1O (stereo not drawn) [salmeterol]
MBP and MOG expression (Western blot) (OPCs [1]): positive
effect on carbachol induced Ca2+ influx [2]: no effect
markers of mature myelinating oligodendrocytes (MBP, MOG, CNP, GalC, O1, O4) by immunofluorescence (OPCs [3]): confirmed the presence of multiple markers of mature myelinating oligodendrocytes
induction of MBP expression (qRT-PCR) over DMSO (OPCs [4]): two-fold
induction of MOG expression (qRT-PCR) over DMSO (OPCs [4]): two-fold
effect of carbachol on compound induced OPC differentiation (muscarinic receptor): did not inhibit; also recorded: no effect
induction of OPC differentiation (MBP staining) [5]: promote OPC differentiation

CCN(CC)CCOCCOC(=O)C1(c2ccccc2)CCCC1 [carbetapentane]
MBP and MOG expression (Western blot) (OPCs [1]): positive
effect on carbachol induced Ca2+ influx [2]: inhibit
markers of mature myelinating oligodendrocytes (MBP, MOG, CNP, GalC, O1, O4) by immunofluorescence (OPCs [3]): confirmed the presence of multiple markers of mature myelinating oligodendrocytes
induction of MBP expression (qRT-PCR) over DMSO (OPCs [4]): two-fold
induction of MOG expression (qRT-PCR) over DMSO (OPCs [4]): two-fold
effect of carbachol on compound induced OPC differentiation (muscarinic receptor): inhibited
effect of carbachol on compound induced OPC differentiation (muscarinic receptor; listed as carbapentane): dose dependent inhibition
induction of OPC differentiation (MBP staining) [5]: promote OPC differentiation

c1ccc(CCCN2CCN(CCOC(c3ccccc3)c3ccccc3)CC2)cc1 [GBR12935]
MBP and MOG expression (Western blot) (OPCs [1]): positive
effect on carbachol induced Ca2+ influx [2]: no effect
markers of mature myelinating oligodendrocytes (MBP, MOG, CNP, GalC, O1, O4) by immunofluorescence (OPCs [3]): confirmed the presence of multiple markers of mature myelinating oligodendrocytes
induction of MBP expression (qRT-PCR) over DMSO (OPCs [4]): two-fold
induction of MOG expression (qRT-PCR) over DMSO (OPCs [4]): two-fold
effect of carbachol on compound induced OPC differentiation (muscarinic receptor): did not inhibit; also recorded: no effect
percentage of resulting MBP-positive cells ([5]; OPC sample cultured with agent at maximum potency, listed as GBT12935): over 15%
induction of OPC differentiation (MBP staining) [5]: promote OPC differentiation

COc1c(C)c2c(c(O)c1C/C=C(\C)CCC(=O)OCCN1CCOCC1)C(=O)OC2 [Mycophenolate mofetil, mycophenolate mofetil]
mean maximal clinical EAE score in relapse, day 25 (PLP induced EAE mice; SJL mice, scale 0-5, compounds 10 mg/kg i.p. daily from day 10, mycophenolate mofetil 20 mg/kg from day 14, mean ± SEM): 0.7±0.3
clinical severity versus vehicle, dosing after disease onset (therapeutic mode) (PLP induced EAE mice; compounds 10 mg/kg i.p. daily from first EAE symptoms, mycophenolate 20 mg/kg from day 14): decrease in severity of the relapse
T-cell activation (CD69, CD25) [6]: suppresses the activation and proliferation of T-cells
T-cell proliferation (CFSE) [6]: suppresses T-cell proliferation
